Measured values: US5453438A, “Hydroxamic acid based collagenase inhibitors” (British Biotech Pharmaceuticals Limited, priority 1989, dated 1995)

These molecules were tested against collagenase (assay: Collagenase inhibition activity (acetylated 14C collagen hydrolysis, Cawston and Barrett)). Settings: 37°, 16 hours, pH 7.5, read-out: IC50 (inhibitor concentration effecting 50% inhibition of the collagenase).
Format: biochemical
Protocol: The potency of compounds of general formula I to act as inhibitors of collagenase (a metalloprotease involved in tissue degradation) was determined by the procedure of Cawston and Barrett, (Anal. Biochem., 99, 340-345, 1979) and their potency to act as inhibitors of stromelysin was determined using the procedure of Cawston et al (Biochem. J., 195, 159-165 1981), both of which techniques are to be described more fully in the examples and, to the extent that the law allows, are incorporated by reference herein.
The potency of compounds of general formula I to act as inhibitors of collagenase (a metalloprotease involved in tissue degradation) was determined by the procedure of Cawston and Barrett, (Anal. Biochem., 99, 340-345, 1979), hereby incorporated by reference, whereby a 1 mM solution of the inhibitor being tested or dilutions thereof was incubated at 37° for 16 hours with collagen and collagenase (buffered with 25 mM Hepes, pH 7.5 containing 5 mM CaCl2, 0.05% Brij 35 and 0.02% NAN3). The collagen was acetylated ^14C collagen prepared by the method of Cawston and Murphy (Methods in Enzymology, 80, 711, 1981), hereby incorporated by reference. The samples were centrifuged to sediment undigested collagen and an aliquot of the radioactive supernatant removed for assay on a scintillation counter as a measure of hydrolysis. The collagenase activity in the presence of 1 mM inhibitor, or a dilution thereof, was compared to activity in a control devoid of inhibitor and the results reported below as that inhibitor concentration effecting 50% inhibition of the collagenase (IC50).
Molecule CC(C)C[C@H](CC(=O)NO)C(=O)N[C@@H](Cc1ccccc1)C(=O)N(C)CCO [Example 2, [4-(N-Hydroxyamino)-2R-isobutylsuccinyl]-L-phenylalanine-N-(2-hydroxyethyl)-N-methylamide] has an IC50 of 200 nM.
With CCSCCNC(=O)[C@H](Cc1ccccc1)NC(=O)[C@@H](CC(=O)NO)CC(C)C [Example 3, [4-(N-Hydroxyamino)-2R-isobutylsuccinyl]-L-phenylalanine-N-(2-ethylthioethyl) amide] the IC50 was 20 nM.
CC(=O)NCCNC(=O)[C@H](Cc1ccccc1)NC(=O)[C@@H](CC(=O)NO)CC(C)C [Example 4, [4-(N-Hydroxyamino)-2R-isobutylsuccinyl]-L-phenylalanine-N-(2-N-acetylethyl) amide] gave an IC50 of 90 nM.
